Data from patent publication US20100105707A1, “METHOD OF TREATING OR PREVENTING OXIDATIVE STRESS-RELATED DISEASE” (The United States of America, priority 2006, published 2010).
≈ marks a conversion by molar mass, not a printed value.

How the values were obtained:
[1] = Water solubility in cold water; assay type: physicochemical
Protocol: Commercially available derivatives are obtained from Sigma-Aldrich (St. Louis, Mo.). The methods used for the synthesis of methyl- and sulfur-derivatives of uric acid are similar to those described previously (Beaman et al., J. Org. Chem., 27, 986-990 (1962) and Maruyama et al., Nucleosides, Nucleotides, Nucleic Acids, 19, 1193-1203 (2000)) and structures are confirmed by ^13C nuclear magnetic resonance (NMR) and ultra-violet (UV) spectral analyses. Uric acid analogs are assayed by high performance liquid chromatography (HPLC) and found to be of >97% purity.

[2] = test system: ROS in cerebral cortex synaptosomes; test: Synaptosome antioxidant assay (Fe2+-induced ROS, dihydrorhodamine 123); assay type: cell-based, Sprague-Dawley rats; conditions: 1-10 μM, 1 h pretreatment, then 50 μM Fe2+ for 4 h; FIG. 1B
Protocol: FIG. 1A depicts structures of uric acid and exemplary compounds of formula (I). FIG. 1B illustrates antioxidant activities of uric acid and compounds of formula (I) as quantified using a synaptosome assay in an embodiment of the invention. Levels of reactive oxygen species (ROS) are measured and values are expressed as a percentage of ROS present in Fe^2+-treated control synaptosomes (mean and SEM, n=4 experiments). *p<0.05, **p<0.01 compared to the control value.
Synaptosomes are prepared from the cerebral cortex of 2-3 month-old adult male Sprague-Dawley rats and are cryopreserved using methods described previously (Begley et al., Brain Res. Protoc., 3, 76-82 (1998)). After thawing, cryopreserved synaptosomes are washed twice with Locke's buffer and plated in 24-well plates at a protein concentration of 250 μg per well. […] After an additional 30 min incubation in the presence of 10 μM dihydrorhodamine 123 (DHR), a probe for ROS which fluoresces when oxidized (Keller et al., J. Neurochem., 69, 273-284 (1997)), the synaptosomes are washed twice with Locke's buffer and levels of fluorescence are quantified using a fluorescence plate reader (488 nm excitation and 510 emission wavelengths). Fluorescence values for wells exposed to experimental treatments are expressed as a percentage of the mean value for untreated control wells.

PC12 cells [3] = test: PC12 cell death induced by MPP+; assay type: cell-based; conditions: concentrations of 0.1 to 10 μM; FIGS. 3A and 3B
Excerpt: (§1) FIG. 3 illustrates that uric acid and a compound of formula (I) protect cultured neural cells against oxidative and excitotoxic injury in an embodiment of the invention. Cultured PC12 cells are pretreated with uric acid (FIG. 3A) or mUA3 (FIG. 3B). Cultured hippocampal neurons are pretreated with uric acid (FIG. 3C) or mUA3 (FIG. 3D). Cell survival is quantified and values are the mean and SEM of 4-8 cultures. *p<0.05 compared to 0 uric acid or mUA3 concentration.
(§2) Methods for preparation and maintenance of cultures of PC12 cells and primary embryonic rat hippocampal neurons have been described previously (Furukawa et al., J. Neurosci., 17, 8178-8186 (1997) and Chan et al., J. Biol. Chem., 279, 28733-28743 (2004)). Cells are plated into polyethylenimine-coated plastic 96-well culture plates containing Neurobasal medium with B27 supplements. Experiments are performed in 7-8 day-old cultures (hippocampal neurons) or Dulbecco's modified eagle's medium (DMEM) with 10% fetal bovine serum (PC12 cells). Hippocampal neurons and PC12 cells are plated 7 days and 3 days prior to experiments, respectively. […] Cell viability is quantified by counting viable neurons in premarked microscope fields prior to and following experimental treatment and then calculating percent survival. […]

PC12 cells [4] = test: PC12 cell death induced by Fe2+; assay type: cell-based; conditions: concentrations of 0.1 to 10 μM; FIGS. 3A and 3B
Excerpt: as §1, §2

[5] = test system: primary hippocampal neurons; test: Hippocampal neuron death induced by Fe2+; assay type: cell-based, rat; conditions: FIGS. 3C and 3D
Excerpt: as §1, §2

[6] = test system: primary hippocampal neurons; test: Hippocampal neuron death induced by glutamate excitotoxicity; assay type: cell-based, rat; conditions: FIGS. 3C and 3D
Excerpt: as §1, §2

[7] = Pharmacokinetics: plasma and brain levels after intravenous administration; assay type: in vivo, C57BL/6 mice; conditions: mice; for Kp: male, C57BL/6, mouse, brain (cerebral cortical tissue) / plasma, early time points (15-30 min), read-out: brain tissue concentration as percentage of plasma concentration; for detection in the brain: equimolar to 10 mg/kg uric acid, 15, 30, 60 and 120 min; for brain concentration time course versus plasma: through the 120 min time point
Protocol: Mice are administered intravenously 10 mg/kg ([…]) of uric acid as a reference compound and equimolar doses of its analogs (sUA4-2,6,8 trithio uric acid, 12.9 mg/kg; mUA2-1,7 dimethyl uric acid, 11.7 mg/kg; sUA2-6,8 dithio uric acid, 11.9 mg/kg). Three month-old male C57BL/6 mice are injected with a compound and are euthanized 15, 30, 60 or 120 min later (1 mouse/time point/compound). Blood and brain tissues are rapidly removed, frozen on dry ice and kept at −80° C. before quantification of uric acid analogs. Plasma and cerebral cortical tissues are extracted in 10 volumes of 0.5 M perchloric acid and 1 mM ethylenediamine tetraacetic acid (EDTA). Levels of uric acid analogs in the extracts are quantified by HPLC methods employing a 25 cm RP C18 column, 25 mM KH2PO4 buffer (pH=4.6) with 1 ml/min flow rate and UV diode array detection.
Mice that are administered mUA2, sUA2 or sUA4 intravenously are euthanized at increasing time points (15, 30, 60 and 120 min) and levels of the compounds in plasma and brain tissue are measured.

[8] = test system: cultured hippocampal neurons; test: Oxygen and glucose deprivation (OGD) of cultured hippocampal neurons; assay type: cell-based, rat; conditions: compared to neurons in control cultures; FIG. 2
Protocol: FIG. 2 illustrates that compounds of formula (I) protect cultured hippocampal neurons against ischemia-like conditions in an embodiment of the invention. Neuronal survival is quantified and values are the mean and SEM (n=8-10 cultures). *p<0.05 compared to the vehicle/OGD cultures. Synaptosomes are prepared from the cerebral cortex of 2-3 month-old adult male Sprague-Dawley rats and are cryopreserved using methods described previously (Begley et al., Brain Res. Protoc., 3, 76-82 (1998)). After thawing, cryopreserved synaptosomes are washed twice with Locke's buffer and plated in 24-well plates at a protein concentration of 250 μg per well. After a 30 min period to permit attachment of the synaptosomes to the substrate, synaptomoses are incubated for 1 h with compounds of formula (I) (1-10 μM), and then exposed for 4 h to freshly prepared 50 μM Fe^2+ (FeSO4). After an additional 30 min incubation in the presence of 10 μM dihydrorhodamine 123 (DHR), a probe for ROS which fluoresces when oxidized (Keller et al., J. Neurochem., 69, 273-284 (1997)), the synaptosomes are washed twice with Locke's buffer and levels of fluorescence are quantified using a fluorescence plate reader (488 nm excitation and 510 emission wavelengths). Fluorescence values for wells exposed to experimental treatments are expressed as a percentage of the mean value for untreated control wells. […] Methods for preparation and maintenance of cultures of PC12 cells and primary embryonic rat hippocampal neurons have been described previously (Furukawa et al., J. Neurosci., 17, 8178-8186 (1997) and Chan et al., J. Biol. Chem., 279, 28733-28743 (2004)). Cells are plated into polyethylenimine-coated plastic 96-well culture plates containing Neurobasal medium with B27 supplements. Experiments are performed in 7-8 day-old cultures (hippocampal neurons) or Dulbecco's modified eagle's medium (DMEM) with 10% fetal bovine serum (PC12 cells). […] Cell viability is quantified by counting viable neurons in premarked microscope fields prior to and following experimental treatment and then calculating percent survival.

[9] = test system: mouse model of focal ischemic stroke; test: Focal cerebral ischemia-reperfusion (middle cerebral artery occlusion) model; assay type: in vivo, C57BL/6 mice; conditions: administered 1 h after ischemia onset; for functional outcome (neurological deficit score): FIG. 5A; for brain damage: FIG. 5B
Protocol: (§3) FIG. 4 illustrates that a compound of formula (I) improves functional outcome (e.g., ambulation) and reduces brain damage in a mouse model of focal ischemic stroke in an embodiment of the invention. In FIG. 4A neurological function is scored at 24, 48 and 72 hours post-stroke. In FIG. 4B infarct volume is quantified at 72 hours post-stroke. Values are the mean and SEM (n=8-12 mice). *p<0.001 compared to sham. +p<0.01 compared to vehicle.
as §3, with “FIG. 5” for “FIG. 4”, “that compounds” for “that a compound”, “(I) improve” for “(I) improves”, “outcome” for “outcome (e.g., ambulation)”, “FIG. 5A,” for “FIG. 4A”, “FIG. 5B,” for “FIG. 4B”
Three month-old male C57BL/6 mice are maintained on a 12 h light/12 h dark cycle with continuous access to food and water. The method for subjecting the mice to middle cerebral artery occlusion-reperfusion has been described previously (Arumugam et al., Am. J. Physiol. Heart Circ. Physiol., 287, H2555-2560 (2004)). Mice are anesthetized with isofluorane, a midline incision is made in the neck, and the left external carotid and pterygopalatine arteries are isolated and ligated with 5-0 silk thread. The internal carotid artery (ICA) is occluded at the peripheral site of the bifurcation of the internal carotid artery and the pterygopalatine artery with a small clip and the common carotid artery is ligated with 5-0 silk thread. The external carotid artery is cut, and a 6-0 nylon monofilament with a tip that is blunted (0.2-0.22 mm) with a coagulator is inserted into the external carotid artery. After the clip at the ICA is removed, the nylon thread is advanced into the middle cerebral artery until light resistance is felt. The nylon thread and the common carotid artery ligature are removed after 1 h of occlusion to initiate reperfusion. In the sham group, these arteries are visualized but not disturbed. Mice are administered either uric acid analogs of formula (I) or vehicle (dimethylsulfoxide) by infusion into the femoral vein (10 μl infused over a 2 min period) either 30 min prior to or 60 min after the onset of middle cerebral artery (MCA) occlusion. In a separate set of experiments anesthetized animals from all groups (4-6 mice per group) undergo cerebral blood flow (CBF) measurements using a laser Doppler perfusion monitor. All blood flow measurements are conducted with the mouse fixed in a plastic frame with the probe placed in the region of cerebral cortex perfused by the middle cerebral artery. These procedures are approved by the National Institute on Aging Animal Care and Use Committee.
The functional consequences of focal cerebral ischemia-reperfusion injury are evaluated by using a five-point neurological deficit score (0, no deficit; 1, failure to extend right paw; 2, circling to the right; 3, falling to the right; and 4, unable to walk spontaneously) and are assessed in a blinded fashion. At 72 h of reperfusion, the mice are killed with a lethal dose of isofluorane. The brains are immediately removed and placed into PBS (4° C.) for 15 min, and 2-mm coronal sections are cut with a tissue cutter. The brain sections are stained with 2% 2,3,5-triphenyltetrazolium chloride in phosphate buffer at 37° C. for 15 min. The stained sections are photographed, and the digitized images are used for analysis. The borders of the infarct in each brain slice are outlined and the area quantified using a NIH image 6.1 software. To correct for brain swelling, the infarct area is determined by subtracting the area of undamaged tissue in the left hemisphere from that of the intact contralateral hemisphere. Infarct volume is calculated by integration of infarct areas for all slices of each brain.

Row | Compound | solubility [1] | levels of ROS in synaptosomes [2] | protection of PC12 cells against MPP+ (PC12 cells [3]) | protection of PC12 cells against Fe2+ (PC12 cells [4]) | protection of primary hippocampal neurons against death induced by Fe2+ [5] | protection of primary hippocampal neurons against glutamate excitotoxicity [6] | Kp [7] | detection in the brain [7] | brain concentration time course versus plasma [7] | resistance to OGD induced death [8] | functional outcome (neurological deficit score) [9] | brain damage [9]
1 | O=c1[nH]c(=O)c2[nH]c(=O)[nH]c2[nH]1 [uric acid] | 100 µg/mL (≈ 0.595 mM) | significantly diminished | protected | protected | protected | protected | – | – | – | – | – | –
2 | S=c1[nH]c(=S)c2[nH]c(=S)[nH]c2[nH]1 [sUA4, 2,6,8 trithio uric acid] | 3000 µg/mL (≈ 13.9 mM) | – | – | – | – | – | ~0.1 | detected in the brain at all time points examined | remain elevated while plasma concentrations decrease progressively | significantly more resistant | significantly improve functional outcome | decrease brain damage
3 | Cn1c(=O)[nH]c2[nH]c(=O)n(C)c2c1=O [mUA2, 1,7 dimethyl uric acid] | 2000 µg/mL (≈ 10.2 mM) | – | – | – | – | – | ~0.1 | detected in the brain at all time points examined | remain elevated while plasma concentrations decrease progressively | significantly more resistant | significantly improve functional outcome | decrease brain damage
